Source: patent publication US20220152044A1, “TREATMENT OF INFLAMMATORY DISEASES OF THE CENTRAL NERVOUS SYSTEM” (PALMAYA PTY LTD, priority 2019, published 2022)
Several values for one entry are separate records, joined by “and”; a condition that tells them apart may be missing. Identical values can stand only once.

Key:
cannabis use = test: Survey of 109 patients, cannabis use after flumazenil infusion; type: in vivo, human
Text: In a survey of 109 patients daily use was close to halved from 10% to 5.5%.

methamphetamine use = test: Survey of 109 patients, methamphetamine use after flumazenil infusion; type: in vivo, human
Text: In a survey of 109 patients treated with flumazenil 4.9% were using methamphetamines daily and this fell to 0.9% following treatment with the flumazenil infusion. Abstinence from methamphetamine use increased from 67% before flumazenil treatment to 87% following treatment. This means that 33% of patients using methamphetamines fell to 13% following treatment with flumazenil.

alcohol patients = test: Survey of 84 alcohol patients after flumazenil infusions or implants; type: in vivo, human
Text: In a survey of 84 alcohol patients the percent of patients drinking daily fell from 14.5% to 5.5% following flumazenil infusions or implants.

migraine = test: Treatment of migraine in a person with flumazenil infusion and subcutaneous implants; type: in vivo, human
Description: The patient recently presented to our clinic, and was treated with flumazenil given subcutaneously at a rate of 160 micrograms per hour, delivered by a spring driven pump for a continuous period of time. The time that the migraines regularly occurred was the week prior to menstruation.
(§1) The patient was then treated with a subcutaneous implant delivering an estimated 60-80 micrograms per hour of flumazenil (based on water bath release rate testing). The implant was expected to last 8-10 weeks. This prevented the migraines for about 9-10weeks. In the week before the implant was inserted, the patient's blood flumazenil level was noted to be 0.5 ng/ml. The usual expected level for 160 microgram an hour infusions was in the order of 2-3 ng per ml and 1-1.5 ng for 80 microgram per hour infusions.
(§2) This finding that the migraines were stopped for a nine week period of time was amazing to the patient as they had suffered migraines for typically three weeks out of four for all of the years […]. At the end of week 8 on the first implant their blood flumazenil level was recorded as 0.5 ng per ml, which is considered a low level. Within a week another migraine started and the patient presented to the clinic for treatment.
A further subcutaneous implant was inserted and within four hours all symptoms from the migraine had settled. This was most unusual and unexpected as the symptoms following migraines usually persisted many days for this patient.
(§3) This next implant was also delivering an estimated 60-80 micrograms of flumazenil per hour. Evidence of ovulation was confirmed by routine elevation of progesterone during the luteal phase of one of the two cycles during the time of this second implant. Again no migraines occurred during an 8-9 week time of the second implant. Blood levels of flumazenil at 1.2 and 1.3 ng/ml were recorded during the time of the second implant. After 9-10 weeks the patient, presented to a teaching hospital on the weekend with another migraine. They were treated with all the modern treatments for migraines without resolution of the migraine.
A few days later a third implant was inserted. It again was surprising that all symptoms relating to the migraine settled within four hours.

[1] = test system: benzodiazepine detoxification; test: Benzodiazepine detoxification with subcutaneous flumazenil infusion; type: in vivo, human
Description: Benzodiazepines bring relief to stress and are involved in the release of dopamine. As with all other significant addictions, self-control is extremely damaged in patients with a severe benzodiazepine addiction. Our observations of the treatment of poly-drug dependency which includes benzodiazepine usually responds well to the use of flumazenil at 40-160 μg/hour together with 40-160 μg/hour or greater. […] The continual delivery of flumazenil at this rate allows most patients to reduce their benzodiazepine dosing over a few days to a week or two. The control of symptoms as these patients cease their benzodiazepine is controlled so that the majority of patients can cease benzodiazepine use successfully.
We have used our solution of flumazenil at 16 mg per 30 ml with a pH of 4±1 as a subcutaneous infusion at 40 to 160 μg per hour as our standard treatment to reduce the symptoms associated with benzodiazepine detoxification.
Anticonvulsants, such as sodium valproate at 500 to 1000 mg per day were used for the first 10 days of flumazenil treatment to reduce the risk of epileptic seizures. […] The infusion may require several weeks of treatment and can be followed up with a flumazenil infusion delivering 40 to 160 μg per hour or more, as required to complete detoxification from the opioid.

HPA axis = HPA axis in stressed animals; type: in vivo
Text: For this reason the combination of sustained release naltrexone and sustained release flumazenil using injections, implants or infusions would be expected to limit neuro-inflammatory diseases and their symptoms.

opioid use = test: Abstinence from opioids in 108 patients treated with flumazenil; type: in vivo, human; conditions: 91.2% before flumazenil
Text: In the 108 patients treated with flumazenil abstinence from opioids increased from 91.2% before flumazenil to 100% following the flumazenil treatment.

anxiety [2] = test: Anxiety during and after medication delivery; type: in vivo, human; conditions: flumazenil infusions; for many patients continued for very long periods afterwards
Text: These observations appeared to indicate a cure or recovery of the patients underlying disease rather than relief of symptoms only. These observations included patients treated in five other years as well as the group treated in 2016-2017.

[3] = Blood / plasma flumazenil level in patients; type: in vivo, human
Description: In a severe patient population, ondansetron may be given every 6-8 hours to assist in reducing the nausea and associated anxiety symptoms.
as §1, §2, §3

anxiety [4] = test: Anxiety states monitored in twenty one patients after flumazenil; type: in vivo, human
Text: Twenty one patients were monitored after treatment with flumazenil for the following states: (i) calmness, (ii) tenseness, (iii) relaxation, (iv) contentedness, (v) worry; and (vi) upset.

[5] = test system: smoking of nicotine cigarettes; test: Smoking of nicotine cigarettes in a group of 80 patients treated with flumazenil; type: in vivo, human
Text: We have found a reduction in smoking of nicotine cigarettes with the use of flumazenil. We were able to document that those smoking changed from 82.7% before treatment to 75% following treatment in a group of 80 patients being treated with flumazenil.

premenstrual tension = test: Premenstrual anxiety and symptoms in women treated with flumazenil; type: in vivo, human; conditions: women complaining of premenstrual tension

## CCOC(=O)c1ncn2c1CN(C)C(=O)c1cc(F)ccc1-2 [flumazenil]
Cannabis use; 109 patients, 10% before
  daily cannabis use following treatment: 5.5%
Cannabis use; 109 patients, 75% before
  abstinence from cannabis following treatment: 83.5%
Cannabis use; patients who presented to cease cannabis
  patient-reported cannabis cessation symptoms (nausea day one, anxiety, sleep, paranoid and psychotic thinking, suicidal thoughts): anxiety was decreased and sleep was better
Methamphetamine use; 33% before treatment
  patients using methamphetamines following treatment: 13%
Methamphetamine use; 109 patients, flumazenil infusion, 4.9% before
  patients using methamphetamines daily following treatment: 0.9%
Methamphetamine use; 109 patients, 67% before flumazenil treatment
  abstinence from methamphetamine use following treatment: 87%
Alcohol patients; 53.1% before
  percentage abstinent to alcohol following treatment: 77.1%
Alcohol patients; flumazenil infusions or implants, 14.5% before
  percent of patients drinking daily following treatment: 5.5%
migraine; after insertion of the further (second) subcutaneous implant
  time until all symptoms from the migraine had settled: four
migraine; after insertion of the third implant
  time until all symptoms relating to the migraine settled: four
migraine; second implant, estimated 60-80 micrograms flumazenil per hour
  time without migraines: 8-9 week
migraine; subcutaneous infusion 160 micrograms per hour by spring driven pump
  occurrence of migraine at the expected time (week prior to menstruation): did not occur
[1]; flumazenil at 40-160 μg/hour
  blocking of positive modulation of the GABAA receptor with benzodiazepines: not significantly blocked
[1]; subcutaneous infusion 40 to 160 μg per hour
  time to cease benzodiazepine use after commencement of the infusion: within a few days to a week
[1]; subcutaneous infusion 40 to 160 μg per hour, 16 mg per 30 ml, pH 4±1
  craving for benzodiazepines: decrease in their craving for benzodiazepines
HPA axis
  return of the HPA axis to normal: help return the HPA axis
Opioid use
  abstinence from opioids following treatment: 100%
Anxiety [2]
  anxiety during the time of medication delivery: reduction of anxiety
[3]; 80 microgram per hour infusions
  usual expected blood flumazenil level: 1 to 1.5 ng
[3]; 160 microgram an hour infusions
  usual expected blood flumazenil level: 2-3 ng per ml
[3]; human, blood, subcutaneous, migraine patient, end of week 8 on the first implant
  concentration at 8 weeks: 0.5 ng/mL
[3]; migraine patient, during the time of the second implant
  blood levels of flumazenil: 1.2 ng/mL and 1.3 ng/mL
[3]; migraine patient, in the week before the implant was inserted
  blood flumazenil level: 0.5 ng/mL
Anxiety [4]; twenty one patients
  levels of relaxation following treatment: statically significant increase
Anxiety [4]; twenty one patients after treatment
  states of calmness, tenseness, relaxation, contentedness, worry and upset: improved
[5]; from 78.1% to 71.4%
  fall in those using (smoking) daily: 4%
[5]; group of 80 patients, 82.7% before treatment
  those smoking following treatment: 75%
[5]; same population, 78.1% before treatment
  those using (smoking) daily following treatment: 71.4%
Premenstrual tension
  premenstrual symptoms: reduction in premenstrual symptoms
